According to publication PMC8072580, “Predicting Pharmacokinetic Properties of Potential Anticancer Agents via Their Chromatographic Behavior on Different Reversed Phase Materials” (International Journal of Molecular Sciences, 2021):

What was measured:
[1] = Micellar liquid chromatography (MLC), ODS-2 column, Brij 35 effluent: chromatographic lipophilicity; format: physicochemical; details: pH 7.4, ODS-2 column, 25 °C
Text: There are several theories that describe the effect of the concentration of the surfactant in the effluent on the retention of the solute in MLC [23]. The following Foley’s equation is best known in lipophilicity studies:(2) 1/k=1/km+KAM/km[M] where [M] is the total concentration of the surfactant in the mobile phase minus CMC; KAM is the constant that describes solute-micelle binding; and km is the solute retention parameter at the micellar concentration of zero, i.e., when the concentration of the surfactant monomer is equal to CMC. The KAM and km parameters can be evaluated from the slope and intercept of the experimental 1/k vs. [M] relationships.
Equation (2) describes a linear dependence between decreasing retention and increasing micelle concentration. This equation is valid for aqueous solutions of surfactant or mobile phases with the same concentrations of the organic modifier. The micellar retention parameter, log km, is considered analogous to the log kw parameter evaluated in RPLC. According to the information presented above, this parameter is considered to be a lipophilicity descriptor, and Equation (2) is a simple way to indirectly determine the lipophilic properties of compounds. It is postulated that retention in micellar chromatography depends on hydrophobic (lipophilic), electronic, and steric features of the compounds in a similar way as has been noted concerning pharmacokinetic phenomena. The additional similarity results from the fact that the phospholipids, cholesterol, fatty acids, and triglycerides included in the extracellular and intracellular fluids also form micelles with proteins.
In our investigations, the micellar retention factors were used to calculate the log km parameters using Equation (2) (Table 2). For all of the compounds 1-19, the relationships of 1/k vs. [M] were obtained with very good linearity, confirming that Foley’s equation correctly describes the effect of the concentration of the surfactant in the effluent on the retention of the solute. In our studies, the micellar log km parameters for three pharmacologically active sets of compounds 1-6, 7-14, and 15-19 and the log k factors for solutes 15-19 obtained on IAM and end-capped ODS stationary phases were determined experimentally. All these retention factors, together with the log kw values for compounds 1-14 obtained in our earlier investigations on IAM and end-capped ODS stationary phases, were used as lipophilicity descriptors in the QSARs methodology to predict the pharmacokinetic descriptors of the compounds that were tested.
Shimadzu Vp (Shimadzu, Izabelin, Polska) liquid chromatographic system was used in HPLC measurements. It was equipped with an LC 10AT pump, SPD 10A UV–Vis detector, SCL 10A system controller, CTO-10 AS chromatographic oven, and Rheodyne injector valve with a 20 μL loop. As the stationary phases, 3 different revered-phase materials were applied: Spherisorb ODS-2 column, 125 × 4 mm i.d., 5 μm (Merck, Lublin, Poland), Regis IAM.PC.DD2 column, 100 × 4.6 mm i.d., 10 μm (Morton Grove, Illinois, USA), and Purosphere RP-18e column, 125 × 4 mm i.d., 5 μm (Merck, Lublin, Poland).
In the MLC technique with an ODS-2 column, buffered Brij 35 mixtures (0.15; 0.125, 0.10, and 0.075 mol/L) with 7% (v/v) addition of isopropanol were used as mobile phases. The buffer was prepared from 0.01 mol/L solutions of Na2HPO4 and citric acid, and the pH 7.4 value was fixed before mixing with an organic modifier. The flow rate was 1 mL/min. Buffered acetonitrile mixtures were used as effluents with the IAM column. Acetonitrile concentration, expressed as a volume fraction, was changed in the range of 0.2–0.5, with the constant step of 0.1. The flow rate was 1.3 mL/min. Acetonitrile concentration was changed in the range of 0.3–0.6 with the RP-18e column, with the constant step of 0.1 and flow rate of 0.1 mL/min. As solutes tested there were used 19 newly designed structurally related compounds. […]

[2] = design: method as in PMID 31864156; details: IAM.PC.DD2 column, buffered acetonitrile; cited from earlier work
[3] = design: method as in PMID 31864156; details: end-capped ODS column, aqueous acetonitrile; cited from earlier work
human cancer cells = test system: human cancer cells; design: method as in PMID 31864156, PMID 16545495, PMID 25528370; details: cited from earlier work
Danio rerio = test system: Danio rerio; design: method as in PMID 33390035; details: cited from earlier work

SMILES: Cc1ccccc1N1CCn2c1nnc(C(F)(F)F)c2=O [Compound 8]
- k (MLC retention factor) ([1]; 0.075 M Brij 35, 7% isopropanol): 6.50
- k (MLC retention factor) ([1]; 0.1 M Brij 35, 7% isopropanol): 5.97
- k (MLC retention factor) ([1]; 0.125 M Brij 35, 7% isopropanol): 5.52
- k (MLC retention factor) ([1]; 0.15 M Brij 35, 7% isopropanol): 5.28
- log kw,IAM [2]: 0.76 [19]
- log kw,ODS [3]: 1.81 [19]
- antiproliferative effects in cancer cells compared with normal cells (human cancer cells): clearly higher antiproliferative effects in cancer cells than in normal cells
- safety for early life stages of Danio rerio compared with pemetrexed (Danio rerio): safer for the early life stages of Danio rerio than pemetrexed
